This passage reports ROK activity results from US20090163515A1, “Compounds Which Bind to the Active Site of Protein Kinase Enzymes” (Biofocus Discovery Ltd., priority 2003, published 2009).

For this experiment, the system named is ROK. Put plainly: ROK activity assay. Format: biochemical. Also on record: key: +: active; ++: more active; +++: very active. As to conditions: assays conducted at 1-100 μM.
`COc1ccc(CNc2cncc(-c3ccc(O)cc3)c2)cc1OC` [4-[5-(3,4-Dimethoxy-benzylamino)-pyridin-3-yl]-phenol]: the ROK activity entry is reported as “+”. Next, `c1cc(-c2cnc(NCc3ccc4c(c3)OCO4)cn2)ccn1` [Benzo[1,3]dioxol-5-ylmethyl-(5-pyridin-4-yl-pyrazin-2-yl)-amine]: “++”. Next, `FC(F)(F)Oc1cccc(-c2cnc(NCCc3ccncc3)cn2)c1` [(2-Pyridin-4-yl-ethyl)-[5-(3-trifluoromethoxy-phenyl)-pyrazin-2-yl]-amine]: “++”. Take `Clc1cccc(Nc2cncc(-c3ccncc3)c2)c1` [[3,4′]Bipyridinyl-5-yl-(3-chloro-phenyl)-amine]: the ROK activity entry is recorded as “++”. Next, `COc1cncc(-c2cncc(NCc3cccc(O)c3)c2)c1` [3-[(5′-Methoxy-[3,3′]bipyridinyl-5-ylamino)-methyl]-phenol]: “+”; `Oc1cccc(CNc2cncc(-c3ccc4[nH]ccc4c3)c2)c1` [3-{[5-(1H-Indol-5-yl)-pyridin-3-ylamino]-methyl}-phenol]: “+”; `c1ccc2oc(-c3cnc(NCCc4ccncc4)cn3)cc2c1` [(5-Benzofuran-2-yl-pyrazin-2-yl)-(2-pyridin-4-yl-ethyl)-amine]: “++”.

For `COc1ccc(Nc2cncc(-c3cccc(C(N)=O)c3)c2)cc1` [3-[5-(4-Methoxy-phenylamino)-pyridin-3-yl]-benzamide], the ROK activity entry is recorded as “+”. Under `OCCC1CCCCN1c1cnc(-c2ccncc2)cn1` (stereo not drawn) [2-[1-(5-Pyridin-4-yl-pyrazin-2-yl)-piperidin-2-yl]-ethanol] stands “+”; under `Oc1ccc(-c2cncc(NCc3ccoc3)c2)cc1` [4-{5-[(Furan-3-ylmethyl)-amino]-pyridin-3-yl}-phenol], “++”; under `c1csc(CNc2cnc(-c3ccncc3)cn2)c1` [(5-Pyridin-4-yl-pyrazin-2-yl)-thiophen-2-ylmethyl-amine], “++”.

As for `Oc1cccc(CNc2cncc(-c3cccc4ncccc34)c2)c1` [3-[(5-Quinolin-5-yl-pyridin-3-ylamino)-methyl]-phenol], the ROK activity result is recorded as “+++”. Under `COc1ccc(CNc2cncc(-c3cccc(C(N)=O)c3)c2)cc1` [3-[5-(4-Methoxy-benzylamino)-pyridin-3-yl]-benzamide] stands “+”; under `Fc1ccc(-c2cnc(NCCc3ccncc3)cn2)cc1Cl` [[5-(3-Chloro-4-fluoro-phenyl)-pyrazin-2-yl]-(2-pyridin-4-yl-ethyl)-amine], “+”; under `Oc1ccc(-c2cncc(NCc3cccc(Cl)c3)c2)cc1` [4-[5-(3-Chloro-benzylamino)-pyridin-3-yl]-phenol], “++”. Under `NC(=O)c1cccc(-c2cncc(NCC3CCCN3)c2)c1` (stereo not drawn) [3-{5-[(Pyrrolidin-2-ylmethyl)-amino]-pyridin-3-yl}-benzamide] stands “+”; under `NC(=O)c1cccc(-c2cncc(NCc3cccc(OC(F)(F)F)c3)c2)c1` [3-[5-(3-Trifluoromethoxy-benzylamino)-pyridin-3-yl]-benzamide], “++”.

On to `CC(=O)Nc1cccc(-c2cncc(NCc3cccc(O)c3)c2)c1` [N-{3-[5-(3-Hydroxy-benzylamino)-pyridin-3-yl]-phenyl}-acetamide], for which the ROK activity entry was “+”.

In the case of `Clc1ccc(CNc2cncc(-c3ccncc3)c2)cc1` [[3,4′]Bipyridinyl-5-yl-(4-chloro-benzyl)-amine], the ROK activity entry is recorded as “+++”. Regarding `Fc1cc(CNc2cncc(-c3ccncc3)c2)ccc1Cl` [[3,4′]Bipyridinyl-5-yl-(4-chloro-3-fluoro-benzyl)-amine], the ROK activity result was “+++”. Under `NC(=O)c1cccc(-c2cncc(NCc3ccc(O)cc3)c2)c1` [3-[5-(4-Hydroxy-benzylamino)-pyridin-3-yl]-benzamide] stands “++”; under `c1cc(-c2cncc(NCC3CCCN3)c2)ccn1` (stereo not drawn) [[3,4′]Bipyridinyl-5-yl-pyrrolidin-2-ylmethyl-amine], “+”. Next, `NC(=O)c1cccc(-c2cncc(NCc3cc(O)cc(O)c3)c2)c1` [3-[5-(3,5-Dihydroxy-benzylamino)-pyridin-3-yl]-benzamide]: “++”; `Fc1ccc(CNc2cncc(-c3ccncc3)c2)cc1F` [[3,4′]Bipyridinyl-5-yl-(3,4-difluoro-benzyl)-amine]: “++”; `Oc1ccc(-c2cnc(NCc3ccccc3)cn2)cc1` [4-(5-Benzylamino-pyrazin-2-yl)-phenol]: “++”.

Turning to `CC(Nc1cnc(-c2ccc(O)cc2)cn1)c1ccccc1` (stereo not drawn) [4-[5-(1-Phenyl-ethylamino)-pyrazin-2-yl]-phenol], the ROK activity result is “++”.

On to `Oc1ccc(-c2cncc(NCc3cc(O)cc(O)c3)c2)cc1` [5-{[5-(4-Hydroxy-phenyl)-pyridin-3-ylamino]-methyl}-benzene-1,3-diol], for which the ROK activity result is reported as “++”. Next, `Oc1ccc(-c2cncc(NCC3CCCN3)c2)cc1` (stereo not drawn) [4-{5-[(Pyrrolidin-2-ylmethyl)-amino]-pyridin-3-yl}-phenol]: “++”.

In the case of `Oc1ccc(-c2cncc(NCc3cccc(O)c3)c2)cc1` [(5-(4′-hydroxy-phenyl)-pyridin-3-yl)-(3-hydroxy-benzyl)-amine], the ROK activity result is “+++”. For the compound `Oc1cccc(CNc2cncc(-c3ccccc3)c2)c1` [3-[(5-Phenyl-pyridin-3-ylamino)-methyl]-phenol], the ROK activity entry is “+”. On to `COc1ccc(-c2cnc(NCCc3ccncc3)cn2)cc1OC` [[5-(3,4-Dimethoxy-phenyl)-pyrazin-2-yl]-(2-pyridin-4-yl-ethyl)-amine], for which the ROK activity entry is on record as “++”. Under `c1ccc2sc(-c3cnc(NCCc4ccncc4)cn3)cc2c1` [(5-Benzo[b]thiophen-2-yl-pyrazin-2-yl)-(2-pyridin-4-yl-ethyl)-amine] stands “++”; under `Oc1ccc(-c2cncc(NCc3ccc(Cl)cc3)c2)cc1` [4-[5-(4-Chloro-benzylamino)-pyridin-3-yl]-phenol], “++”; under `NC(=O)c1cccc(-c2cncc(Nc3cccc(O)c3)c2)c1` [3-[5-(3-Hydroxy-phenylamino)-pyridin-3-yl]-benzamide], “++”. Under `c1cc(CCNc2cnc(-c3ccc4c(c3)OCO4)cn2)ccn1` [(5-Benzo[1,3]dioxol-5-yl-pyrazin-2-yl)-(2-pyridin-4-yl-ethyl)-amine] stands “++”; under `Oc1ccc(-c2cncc(NCc3ccc4ccccc4c3)c2)cc1` [4-{5-[(Naphthalen-2-ylmethyl)-amino]-pyridin-3-yl}-phenol], “+”; under `COc1ccc(CNc2cncc(-c3cccc(C(N)=O)c3)c2)cc1O` [3-[5-(3-Hydroxy-4-methoxy-benzylamino)-pyridin-3-yl]-benzamide], “++”. Under `Oc1ccc(-c2cnc(NCCc3ccncc3)cn2)cc1` [4-[5-(2-Pyridin-4-yl-ethylamino)-pyrazin-2-yl]-phenol] stands “+”; under `CC(C)C(CO)Nc1cnc(-c2ccncc2)cn1` (stereo not drawn) [3-Methyl-2-(5-pyridin-4-yl-pyrazin-2-ylamino)-butan-1-ol], “+”. Regarding `Clc1cccc(CNc2cncc(-c3ccncc3)c2)c1` [[3,4′]Bipyridinyl-5-yl-(3-chloro-benzyl)-amine], the ROK activity entry is given as “++”. Under `Oc1ccc(-c2cncc(NCc3cccc(OC(F)(F)F)c3)c2)cc1` [4-[5-(3-Trifluoromethoxy-benzylamino)-pyridin-3-yl]-phenol] stands “+”; under `Oc1cccc(CNc2cncc(-c3ccncc3Cl)c2)c1` [3-[(3′-Chloro-[3,4′]bipyridinyl-5-ylamino)-methyl]-phenol], “+++”. With `CSc1ccc(-c2cnc(NCCc3ccncc3)cn2)cc1` [[5-(4-Methylsulfanyl-phenyl)-pyrazin-2-yl]-(2-pyridin-4-yl-ethyl)-amine], the ROK activity result is “++”. Take `NC(=O)c1cccc(-c2cncc(NCc3ccc4c(c3)OCO4)c2)c1` [3-{5-[(Benzo[1,3]dioxol-5-ylmethyl)-amino]-pyridin-3-yl}-benzamide]: the ROK activity entry was “+”. Under `COc1cc(-c2cnc(NCCc3ccncc3)cn2)cc(OC)c1OC` [(2-Pyridin-4-yl-ethyl)-[5-(3,4,5-trimethoxy-phenyl)-pyrazin-2-yl]-amine] stands “++”; under `CN(C)CCNC(=O)c1cccc(-c2cncc(Nc3ccc4ccccc4c3)c2)c1` [N-(2-Dimethylamino-ethyl)-3-[5-(naphthalen-2-ylamino)-pyridin-3-yl]-benzamide], “+”. Under `OCc1ccc(-c2cncc(NCc3cccc(O)c3)c2)cc1` [3-{[5-(4-Hydroxymethyl-phenyl)-pyridin-3-ylamino]-methyl}-phenol] stands “+”; under `O=C(NCCO)c1cccc(-c2cncc(NCc3cccc(O)c3)c2)c1` [3-[5-(3-Hydroxy-benzylamino)-pyridin-3-yl]-N-(2-hydroxy-ethyl)-benzamide], “++”; under `NC(=O)c1cccc(-c2cncc(NCc3ccc(Cl)cc3)c2)c1` [3-[5-(4-Chloro-benzylamino)-pyridin-3-yl]-benzamide], “++”. Next, `Nc1ccc(-c2cncc(NCc3cccc(O)c3)c2)cc1` [3-{[5-(4-Amino-phenyl)-pyridin-3-ylamino]-methyl}-phenol]: “+”.

As for `COc1ccc(Nc2cncc(-c3cccc(O)c3)c2)cc1` [3-[5-(4-Methoxy-phenylamino)-pyridin-3-yl]-phenol], the ROK activity result was “++”. Next, `Nc1cccc(-c2cncc(NCc3cccc(O)c3)c2)c1` [3-{[5-(3-Amino-phenyl)-pyridin-3-ylamino]-methyl}-phenol]: “+”; `OCc1cccc(-c2cncc(NCc3cccc(O)c3)c2)c1` [3-{[5-(3-Hydroxymethyl-phenyl)-pyridin-3-ylamino]-methyl}-phenol]: “+”; `Oc1cccc(Nc2cncc(-c3ccncc3)c2)c1` [3-([3,4′]Bipyridinyl-5-ylamino)-phenol]: “++”.
